One experiment concerns the target T1, PLK2 (Homo sapiens, UniProt Q9NYY3).
T1 construct: GST (N)
The experiment is described as follows: PLK TR-FRET peptide assay (PLK2). The experiment is classed as biochemical. Conditions: for selectivity relative to PLK1: compared to analogous compounds of WO 2011/079118; for activity with respect to PLK2: in vitro IC50 compared to analogous compounds of WO 2011/079118 (R1 methyl instead of fused ring). The procedure: (§1) Compounds as described herein (compounds of Formula I, e.g., compounds of the above Examples) are tested for their in vitro kinase activities using various PLK assays. An exemplary assay procedure is described below.
(§2) (1) Test compound solution preparation: prepare 4× compound solution in PLK assay buffer (50 mM HEPES, 10 mM MgCl2, 1 mM EGTA, 0.01% Tween-20, pH7.4). DTT is added to the buffer just before the experiment to a final concentration of 2 mM. Add 2.5 μl/well to a black 384-well low volume plate (4% DMSO at this step). (2) Kinase preparation: Prepare 2×GST-PLK 1, 2 or 3 (e.g., CarnaBio) solutions in assay buffer (6 nM for PLK1, 6 nM for PLK2 and 0.2 nM for PLK3). Add 5 μl/well, shake the plate, incubate the enzyme with compound at ret. Time for 15 min. (3) ATP/substrate mixture preparation: Prepare 4× (ATP/ULight-Topo Ha peptide substrate; e.g., Perkin Elmer) mixture in assay buffer (0.4 mM ATP/200 nM peptide). Add 2.5 μl/well, shake the plate and incubate at ret. Time. Reactions time: 60 min for PLK1, 60 min for PLK2 and 15 min for PLK3 (4) EDTA preparation: Dilute 0.5M EDTA to 24 mM with detection buffer. Add 5 μl/well to the plate, shake the plate well for 5 min. (5) Prepare 4× Eu-anti-P-Topo Ha (T1342) (e.g., Perkin Elmer) solution (8 nM) in detection buffer (50 Tris-HCl, 150 mM NaCl, 0.5% BSA, PH7.5). Add 5 μl/well to the plate, shake the plate and incubate at ret. Time for 1 h before reading on Envision at 665 nm/615 nm. The fluorescent signal as a function of compound concentration is used to determine the compound IC50.
(TR-FRET usually uses a lanthanide donor and a delayed reading to cut background.)

Experiment [1] has as its system HEK-293 cells expressing α-synuclein and PLK2. The experiment is described as follows: 293-Syn/PLK2 cell assay (ratio of p-Ser-129 α-synuclein to total synuclein, ELISA). The experiment is classed as cell-based. As to conditions: for IC50: Homo sapiens, HEK293, HEK-293 cells expressing α-synuclein and PLK2, ratio of phosphorylated synuclein to total synuclein; for cell activity: cellular IC50 compared to analogous compounds of WO 2011/079118. The procedure: Compounds as described herein (compounds of Formula I, e.g., compounds of the above Examples) are tested for their activity in HEK-293 cells expressing α-synuclein and PLK2. An exemplary assay procedure is described below.
(1) Plate HEK-293 cells stably transfected with α-synuclein in 10 cm dishes (Corning) at […] in 10% FCS/DMEM. (2) Transfect cells with PLK2 (PLK2-pCMV6 (Origene), at a concentration of 24 μg/dish and 72 μl Fugene6/dish (Roche)). (3) Trypsinize cells the following day and plate at 30,000 cells/well in PDL coated 96 well tissue culture plates (Becton Dickinson). (4) Starting with compounds at a concentration of 10 mM solutions, prepare five 1:3 serial dilutions in DMSO. (5) Dilute test and positive control compound DMSO stocks 1:100 into 10% FCS DMEM. (6) Change the cell media immediately prior to compound treatment, then add compound+DMEM to cells at 1:10 final dilution (final DMSO concentration is 0.1%). (7) After 2 hours, place the cells on ice, remove the media and the rinse cells once with cold phosphate buffered saline (PBS). Remove PBS and lyse the cells using a cell extraction buffer (CEB) (10 mM Tris, pH 7.4, 100 mM NaCl, 1 mM EDTA, 1 mM NaF, 1 mM EGTA, 20 mM Na4P2O7, 2 mM Na3VO4, 0.5% Deoxycholate, 1% TritonX-100, 10% Glycerol, 0.1% SDS) with added protease inhibitors (10 μg/ml leupeptin, 20 μg/ml aprotinin) (8) Freeze plates on dry ice and store at −80°.
Total and p-Ser-129 α-synuclein levels can be quantified with a sandwich ELISA (e.g., using 1H7 as the capture antibody and biotinylated 5C12 and 11A5 as the total and phospho synuclein reporter antibodies respectively; see e.g., J. Biol. Chem. 2006, 281:29739-29752, the disclosure of which is incorporated herein in its entirety). Alpha-synuclein phosphorylated at serine 129 (p-Ser-129 α-synuclein) levels are normalized to the total synuclein measured in each lysate and the ratio of phosphorylated synuclein to total synuclein as a function of compound concentration can be used to determine IC50 of the compounds.
In general terms: An ELISA detects its analyte on a solid surface through an enzyme-linked reagent.

Another experiment has as its target T2, PLK3 (Homo sapiens, UniProt Q9H4B4).
T2 construct: GST (N)
The experiment is described as follows: PLK TR-FRET peptide assay (PLK3). The experiment is classed as biochemical. As to conditions: class symbols. The procedure:
as §1, §2

The target of another experiment is T3, PLK1 (Homo sapiens, UniProt P53350).
T3 construct: GST (N)
The experiment is described as follows: PLK TR-FRET peptide assay (PLK1). It is filed as biochemical. The protocol:
as §1, §2

The mark [2] stands for this setting: PLK TR-FRET peptide assay, class symbols.
Setting [3] is: comparison with analogous compounds of WO 2011/079118.

T1 sequence (Q9NYY3 whole entry): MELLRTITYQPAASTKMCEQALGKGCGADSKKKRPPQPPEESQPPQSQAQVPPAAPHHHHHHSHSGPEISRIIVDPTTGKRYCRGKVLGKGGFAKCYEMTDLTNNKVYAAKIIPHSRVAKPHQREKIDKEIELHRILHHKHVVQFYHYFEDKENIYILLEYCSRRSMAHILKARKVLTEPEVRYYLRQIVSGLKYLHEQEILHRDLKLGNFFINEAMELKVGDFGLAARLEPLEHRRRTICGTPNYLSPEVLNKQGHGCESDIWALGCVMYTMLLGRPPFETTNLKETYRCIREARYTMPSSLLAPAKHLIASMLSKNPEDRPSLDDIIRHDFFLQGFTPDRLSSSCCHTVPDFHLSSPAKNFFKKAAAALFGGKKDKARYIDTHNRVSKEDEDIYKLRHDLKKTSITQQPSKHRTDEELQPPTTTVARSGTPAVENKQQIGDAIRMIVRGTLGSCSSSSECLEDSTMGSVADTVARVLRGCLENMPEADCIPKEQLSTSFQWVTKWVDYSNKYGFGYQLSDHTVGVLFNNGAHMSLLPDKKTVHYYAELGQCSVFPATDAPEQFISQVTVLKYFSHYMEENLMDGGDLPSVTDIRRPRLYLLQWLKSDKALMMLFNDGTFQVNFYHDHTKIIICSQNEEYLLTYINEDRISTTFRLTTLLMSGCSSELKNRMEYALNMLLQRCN
T2 sequence (Q9H4B4 whole entry): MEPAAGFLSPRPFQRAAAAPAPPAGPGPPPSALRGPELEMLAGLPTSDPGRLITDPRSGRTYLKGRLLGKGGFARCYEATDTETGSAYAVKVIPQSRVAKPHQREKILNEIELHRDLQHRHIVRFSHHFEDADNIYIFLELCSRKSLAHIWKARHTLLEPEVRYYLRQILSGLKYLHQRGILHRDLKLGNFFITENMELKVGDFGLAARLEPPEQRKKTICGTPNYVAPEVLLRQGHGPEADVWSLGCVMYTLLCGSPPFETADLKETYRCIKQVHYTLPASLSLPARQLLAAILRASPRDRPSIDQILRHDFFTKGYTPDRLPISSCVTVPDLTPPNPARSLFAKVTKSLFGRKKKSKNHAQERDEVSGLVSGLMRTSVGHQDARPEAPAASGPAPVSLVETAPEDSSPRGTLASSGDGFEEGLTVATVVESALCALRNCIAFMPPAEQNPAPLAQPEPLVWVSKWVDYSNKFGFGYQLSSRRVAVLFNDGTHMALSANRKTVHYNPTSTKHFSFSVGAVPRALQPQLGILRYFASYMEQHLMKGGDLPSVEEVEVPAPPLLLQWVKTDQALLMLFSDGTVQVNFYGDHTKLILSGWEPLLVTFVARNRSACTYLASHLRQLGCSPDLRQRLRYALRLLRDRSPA
T3 sequence (P53350 whole entry): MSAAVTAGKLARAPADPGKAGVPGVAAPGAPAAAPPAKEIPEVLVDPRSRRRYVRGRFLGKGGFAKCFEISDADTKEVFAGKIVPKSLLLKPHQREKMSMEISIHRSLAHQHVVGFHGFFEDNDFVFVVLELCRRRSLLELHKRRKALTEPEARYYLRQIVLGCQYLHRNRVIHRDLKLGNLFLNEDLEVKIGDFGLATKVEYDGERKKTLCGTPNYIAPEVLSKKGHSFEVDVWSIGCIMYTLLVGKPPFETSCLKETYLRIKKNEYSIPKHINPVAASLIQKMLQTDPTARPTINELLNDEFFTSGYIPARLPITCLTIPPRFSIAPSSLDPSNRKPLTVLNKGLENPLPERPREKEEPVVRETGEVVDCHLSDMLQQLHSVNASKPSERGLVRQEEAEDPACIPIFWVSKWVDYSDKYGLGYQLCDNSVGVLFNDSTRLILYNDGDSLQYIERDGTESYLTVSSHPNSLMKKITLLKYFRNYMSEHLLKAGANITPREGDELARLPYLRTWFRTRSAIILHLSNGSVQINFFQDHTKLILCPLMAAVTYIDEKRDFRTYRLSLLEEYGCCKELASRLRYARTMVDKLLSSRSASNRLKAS

For the compound `CC[C@@H]1c2nncn2-c2cnc(-n3ccnc3-c3ccc(F)c(F)c3)nc2N1C1CCC1` [Example 1, (R)-5-Cyclobutyl-7-(2-(3,4-difluorophenyl)-1H-imidazol-1-yl)-4-ethyl-4,5-dihydro-[1,2,4]triazolo[4,3-f]pteridine], the concentration for half-maximal inhibition (IC50) (usually the concentration that gives 50% inhibition) against PLK2 (setting [2]) is under 1 µM; at PLK2 (setting [3]), 0.092 µM; in experiment [1], 4.4 µM; against PLK3, 10 to 50 µM; at PLK1 (setting [2]), 10 to 50 µM; against PLK1 (setting [3]), 14.6 µM. Also, the “selectivity relative to PLK1” value on PLK2 is given as “comparable selectivity”. At PLK2 (setting [3]), the “ratio Plk2 IC50 / Plk1 IC50 (selectivity relative to PLK1)” value is 0.0063. In addition, the “activity with respect to PLK2” value at PLK2 is “comparable activity”. The cell activity entry in experiment [1] is given as “comparable cell activity”.
Take `CC[C@@H]1c2nncn2-c2cnc(-n3ccnc3-c3ccccc3)nc2N1C1CCC1` [Example 3, (R)-5-Cyclobutyl-4-ethyl-7-(2-phenyl-1H-imidazol-1-yl)-4,5-dihydro-[1,2,4]triazolo[4,3-f]pteridine]: the IC50 is under 1 µM against PLK2 (setting [2]); 0.0085 µM against PLK2 (setting [3]); 0.42 µM in experiment [1]; 1 to 10 µM against PLK3; under 1 µM at PLK1 (setting [2]); 0.441 µM against PLK1 (setting [3]). For the same compound, the “selectivity relative to PLK1” value on PLK2 is listed as “comparable selectivity”. Also, at PLK2 (setting [3]), the “ratio Plk2 IC50 / Plk1 IC50 (selectivity relative to PLK1)” value was found to be 0.019. In addition, the “activity with respect to PLK2” value at PLK2 is on record as “comparable activity”. For the same compound, the cell activity entry in experiment [1] is “comparable cell activity”.
On to `CC[C@@H]1c2nncn2-c2cnc(-n3ccnc3-c3ccccc3F)nc2N1C1CCC1` [Example 5, (R)-5-cyclobutyl-4-ethyl-7-(2-(2-fluorophenyl)-1H-imidazol-1-yl)-4,5-dihydro-[1,2,4]triazolo[4,3-f]pteridine], for which the IC50 at PLK2 (setting [2]) was under 1 µM; against PLK2 (setting [3]), 0.006 µM; in experiment [1] it was 0.44 µM; against PLK3, 1 to 10 µM; on PLK1 (setting [2]) it was under 1 µM; against PLK1 (setting [3]), 0.317 µM. Further, the “selectivity relative to PLK1” value on PLK2 is “comparable selectivity”. For the same compound, the “ratio Plk2 IC50 / Plk1 IC50 (selectivity relative to PLK1)” value at PLK2 (setting [3]) is on record as 0.019. Moreover, the “activity with respect to PLK2” value at PLK2 is “comparable activity”. Moreover, the cell activity entry in experiment [1] is given as “comparable cell activity”.
Regarding `CC[C@@H]1c2nncn2-c2cnc(-n3ccnc3-c3ccc(F)cc3)nc2N1C1CCC1` [Example 7, (R)-5-Cyclobutyl-4-ethyl-7-(2-(4-fluorophenyl)-1H-imidazol-1-yl)-4,5-dihydro-[1,2,4]triazolo[4,3-f]pteridine], the IC50 is under 1 µM against PLK2 (setting [2]); 0.04 µM at PLK2 (setting [3]); 2.9 µM in experiment [1]; 10 to 50 µM against PLK3; 1 to 10 µM on PLK1 (setting [2]); 6.26 µM at PLK1 (setting [3]). Also, the “selectivity relative to PLK1” value at PLK2 was “comparable selectivity”. Also, on PLK2 (setting [3]), the “ratio Plk2 IC50 / Plk1 IC50 (selectivity relative to PLK1)” value was 0.0064. Further, the “activity with respect to PLK2” value at PLK2 is “comparable activity”. Further, the cell activity result in experiment [1] is “comparable cell activity”.
Take `CC[C@@H]1c2nncn2-c2cnc(-n3ccnc3-c3cccc(F)c3F)nc2N1C1CCC1` [Example 9, (R)-5-cyclobutyl-7-(2-(2,3-difluorophenyl)-1H-imidazol-1-yl)-4-ethyl-4,5-dihydro-[1,2,4]triazolo[4,3-f]pteridine]: the half-maximal inhibitory concentration (IC50) is under 1 µM on PLK2 (setting [2]), 1 to 10 µM against PLK3 and under 1 µM against PLK1 (setting [2]).
For the compound `CC[C@@H]1c2nncn2-c2cnc(-n3ccnc3-c3ccc(F)cc3F)nc2N1C1CCC1` [Example 11, (R)-5-Cyclobutyl-7-(2-(2,4-difluorophenyl)-1H-imidazol-1-yl)-4-ethyl-4,5-dihydro-[1,2,4]triazolo[4,3-f]pteridine], the IC50 was under 1 µM on PLK2 (setting [2]), 10 to 50 µM on PLK3 and 1 to 10 µM at PLK1 (setting [2]).
In the same order, the values of `CC[C@@H]1c2nncn2-c2cnc(-c3c[nH]nc3-c3nccs3)nc2N1C1CCC1` [Example 695, (R)-2-(4-(5-cyclobutyl-4-ethyl-4,5-dihydro-[1,2,4]triazolo[4,3-f]pteridin-7-yl)-1H-pyrazol-3-yl)thiazole] are under 1 µM, 1 to 10 µM and 1 to 10 µM.
For `CC[C@@H]1C(=O)N(C)c2cnc(-n3ccnc3-c3ccccc3)nc2N1C1CCC1` [PCT Example 47, reference compound], the concentration for half-maximal inhibition (IC50) is 0.007 µM at PLK2 (setting [3]), 0.67 µM in experiment [1] and 0.194 µM on PLK1 (setting [3]). Besides, the “ratio Plk2 IC50 / Plk1 IC50 (selectivity relative to PLK1)” value on PLK2 (setting [3]) was found to be 0.036.
In the same order, the values of `CC[C@@H]1C(=O)N(C)c2cnc(-n3ccnc3-c3ccc(F)c(F)c3)nc2N1C1CCC1` [PCT Example 48, reference compound] are 0.039 µM, 4.3 µM, 3.56 µM and 0.011.
In the same order, the values of `CC[C@@H]1C(=O)N(C)c2cnc(-n3ccnc3-c3ccccc3F)nc2N1C1CCC1` [PCT Example 49, reference compound] are 0.0045 µM, 0.42 µM, 0.077 µM and 0.058.
For `CC[C@@H]1c2nncn2-c2cnc(-n3ccnc3-c3ccc(F)cc3)nc2N1C1CCC1` [PCT Example 50, reference compound], the IC50 at PLK2 (setting [3]) worked out at 0.02 µM; against PLK1 (setting [3]), 2.06 µM.
